Results published in patent US5744621A, “Irreversible HIV protease inhibitors, intermediates, compositions and processes for the preparation thereof” (Lucky Limited., priority 1992, dated 1998).

Legend:
HIV-1 protease = target: T1, HIV-1 protease (Human immunodeficiency virus type 1 group M subtype B, UniProt P04585); test: Assay for inhibitory effect on HIV protease (residual enzyme activity, HPLC of substrate cleavage); format: biochemical; conditions: pH 5.5; for Ki / kinact: HIV-1 protease 2.6 nM; for Ki: inhibition constant; for kinact: rate constant of covalent bond formation, read-out: kina (converted); for kinact/KI: second order rate constant, HIV-1 protease, read-out: kina /KI (converted)
T1 construct: 2.6 nM of HIV-1 protease
Description: The inhibitory effect on HIV protease of the compounds of the present invention was determined by the following method.
To a buffer solution comprising 50 mM sodium acetate, pH 5.5, 1 mM dithiothreitol(DTT), 1 mM ethylenediaminetetraacetate (EDTA), 0.75M ammonium sulfate, 0.2M sodium chloride and 0.1% NP40(NONIDET P-40; Sigma Chemical Co., U.S.A.), were added various concentrations of a compound selected from Compound Nos. 1 to 92 to prepare a preincubation solution. Inhibition reaction was started with the addition of 2.6 nM of HIV-1 protease to the preincubation solution. Each 10 μl of the reaction solution was taken at a given time interval and added to 80 μl of assay solution containing 100 μM of reaction substrate in the same buffer solution as above to assay for the residual enzyme activity. In this context, an oligopeptide(KM =20 μM) consisting of 11 amino acids, i.e., Ser-Ile-Ala-Glu-(p-NO2)-Phe-Leu-Val-Arg-Ala-Lys-His, was used as a reaction substrate, which oligopeptide was to be cleaved in two by the breakage of amide bond between (P--NO2)-Phe and Leu upon the attack of HIV protease. The reaction rate was determined by subjecting the substrate before the reaction and the product after the reaction to HPLC separation and then measuring the relative amount of the product, using the strong absorbance of (p--NO2)-Phe at 280 nm. The amount of reduction in enzyme activity according to the elapsed time were measured and the natural logarithmic values(ln) of the measured amounts were plotted against time to obtain a linear graph and kobs was calculated from the slope of the linear graph.
The inhibition constant was calculated according to the following equation: [formula] wherein: kobs is a rate constant indicating the rate of reduction in enzyme activity according to the elapsed time under the presence of a given concentration of inhibitor,
kina is a rate constant indicating the rate of chemical reaction forming covalent bond between an enzyme and an inhibitor in Michaelis-Menten complex,
KI is an inhibition constant indicating the dissociation rate of Michaelis-Menten complex into an enzyme and an inhibitor, and
[I] means the inhibitor concentration.
The above equation is applicable to an experiment carried out under the condition in which the concentration of inhibitor is far higher than that of enzyme(Steady State Kinetic). […] The inhibition constants KI and kina and second order rate constant kina /KI were obtained by inputting the value of [E]/([E]+[EI]+[EI']) into KINSIM/FITSIM program. FIG. 1 exemplifies a result of the experiment determining the binding ratio of enzymes and inhibitors, which result was obtained by reacting the enzyme and the inhibitor in various concentration ratios for a sufficient time period(at least for 30 minutes), and then plotting the relative activity of the remaining enzyme against [conc. of inhibitor]/[conc. of enzyme].

HIV-1 = test: Anti-viral activity: syncytium formation (Sup T1) or reverse transcriptase assay (H9); format: cell-based; conditions: Human immunodeficiency virus 1, SUP-T1
Description: The anti-viral activity of the compounds of the present invention was determined by measuring the concentration of the compounds that inhibits the proliferation of HIV by 50%(IC50) through a survey for syncytium formation or reverse transcriptase assay.
1×10^5 cells of each of H9(ATCC HTB 176) and Sup T1 cell lines were added to the wells of a 24-well microtiter plate and various concentrations so the compounds of the present invention were added thereto. 200 TCID50 (200-fold of 50% tissue culture infection dose) of HIV-1 inoculum and rpmi-1640 medium(Sigma Chemical Co., U.S.A) were added successively to the wells and the plate was incubated at 37° C. In case of Sup T1, the number of syncytium formed was investigated after 3 to 9 days. IC50 of each compound was determined by measuring the concentration of inhibitor that can reduce the number of syncytium by 50% compared with those formed in the same condition without the inhibitor.
In case of H9, three-quarters(3/4) of the culture medium in volume was refreshed every 3 days; and 6 ml of the culture fluid was centrifuged at 1000 rpm for 10 minutes. To 5 ml of the resulting supernatant were added 2.5 ml of 30% polyethyleneglycol(PEG, M.W. 6000-8000) and 0.4M NaCl. The resulting solution was allowed to stand at 0° C. overnight to precipitate virus particles. The solution was centrifuged at 2000 rpm for 45 minutes, the supernatant was discarded therefrom and the precipitate was diluted with 20 μl of a reverse transcriptase suspension buffer(50 mM tris-HCl, pH 7.5, 1 mM dithiothreitol, 20% glycerol, 0.25M KCl and 0.25% Triton X-100). The resulting suspension was stored in an Effendorf tube at -70° C. until used. A procedure of freezing said virus suspension for 2 minutes in dry ice and thawing same at 37° C. for 2 minutes was repeated three times and the resulting suspension was centrifuged at 4° C. The resulting supernatant was used in carrying out the reverse transcriptase assay.
10 μl of the said viral suspension was added to a solution of: 10 μl of buffer solution(250 mM tris-HCl, pH 7.5, 37.5 mM MgCl2, 0.25% triton X-100), 1.2 μl of 200 mM dithiothreitol, 5 μl of 10 μM oligo(dT)-poly(A)(Boeringer Manheim, 12-18 oligomer), 1 μl(1 μCi) of ^3 H-TTP(Thymidinetri-phosphate) and 23.6 μl of water; and the resulting mixture was placed at 37° C. After 1 hour, the mixture was poured onto a WHATMAN DEB1 filter and the filter was washed three times with 5 ml of 2×SSC buffer solution(17.53 g of sodium chloride, 8.82 g of sodium citrate, pH 7.0, 1 liter of water) for about 10 minutes each time and twice with 95% ethanol for 10 seconds. The filter was put onto aluminium foil and dried with an infra-red lamp. The amount of radioactivity was counted using a liquid scintillation counter. IC50 of each compound was determined by measuring the concentration of inhibitor that can reduce the activity of reverse transcriptase by 50%.

[1] = Cytotoxicity in H9 or Sup T1 cells (trypan blue dye exclusion); format: cell-based; conditions: human; concentration that causes death of cells by 50%; H9 or Sup T1 cells, 37° C; read-out: CT50 (the source's name)
Description: To determine the cytotoxicity of the compounds of the present invention, 0.1 μM to 100 μM of the novel compounds were added to H9 cell or Sup T1 cell and the mixture was cultured on a rpmi-1640 medium at 37° C. The medium was refreshed every 3 days and the extent of cell proliferation was observed using Hemacytometer according to the trypan blue dye exclusion technique which is well known in the art. CT50 (i.e., concentration that causes death of cells by 50%) was determined. For reference, AZT(Burrows-Wellcome), A-75925 (Abbott, C2 symmetric compound) and Ro-31-8959(F. Hofmann-La Roche) were used as control compounds.

| SMILES | Ki (HIV-1 protease) [µM] | kinact (HIV-1 protease) [s⁻¹] | kinact/KI (HIV-1 protease) [M⁻¹ s⁻¹] | IC50 (HIV-1) [µM] | CC50 [1] [µM] |
| --- | --- | --- | --- | --- | --- |
| CC[C@H](C)[C@H](NC(=O)C[C@@H]1O[C@@H]1[C@H](Cc1ccccc1)NC(=O)[C@H](CC(N)=O)NC(=O)c1ccc2ccccc2n1)C(=O)NC [compound 25, N-{5-L-[[N-(2-quinolinecarbonyl)-L-asparaginyl]amino]-(4R,3S)-epoxy-6-phenylhexanoyl}-L-isoleucinyl-methylamide] | 0.02 | 0.003 | 150000 | 0.5 | > 100 |
| CC[C@H](C)[C@H](NC(=O)C[C@@H]1O[C@@H]1[C@H](Cc1ccccc1)NC(=O)[C@H](CC(N)=O)NC(=O)c1ccc2ccccc2n1)C(=O)OC [compound 2, N-[5-L-[[N-(2-quinolinecarbonyl)-L-asparaginyl]amino]-epoxy-6-phenyl-hexanoyl]-L-isoleucine methyl ester] | 0.018 | 0.00367 | 200000 | 0.2 | > 100 |
| NC(=O)C[C@H](NC(=O)c1cnc2ccccc2n1)C(=O)N[C@@H](Cc1ccccc1)[C@H]1O[C@H]1CCc1ccccc1 [compound 63, 2-L-(N-quinoxaline-2-ylcarbonyl-L-asparaginyl)amino-(3R,4S)-epoxy-1,6-diphenylhexane] | 0.25 | 0.00483 | 20000 | 1 to 2 | > 100 |
| CC(C)[C@H](NC(=O)OCc1ccccc1)C(=O)N[C@@H](Cc1ccccc1)[C@H]1O[C@H]1CNC(=O)[C@H](CC(N)=O)NC(=O)OCc1ccccc1 [compound 76, 4S-[N^1-[(N-benzyloxycarbonyl-L-asparaginyl)amino]]-[N^4-[(N-benzyloxycarbonyl-L-valinyl)amino]]-5-phenyl-(2S,3R)-(Z)-epoxypentane] | 2 | 0.000767 | 383 | 1 | > 100 |
| CC[C@H](C)[C@H](NC(=O)C[C@@H]1O[C@@H]1[C@H](CC1CCCCC1)NC(=O)[C@@H](NC(=O)N(C)Cc1ccccn1)C(C)C)C(=O)OC [compound 39, N-{5-L-[[N,N-(2-pyridylmethyl)(methyl)-amino]carbonylvalinyl]amino-(4R, R3S)-epoxy-6-(cyclohexylmethyl)-hexanoyl}-L-isoleucine methyl ester] | > 10 | – | – | 1 | > 100 |
| CC(C)[C@H](NC(=O)OCc1ccccc1)C(=O)N[C@@H](Cc1ccccc1)[C@H]1O[C@H]1CCc1ccccc1 [compound 53, 2-L-(N-benzyloxycarbonyl-L-valinyl)amino-(3R,4S)-epoxy-1,6-diphenylhexane] | 0.091 | 0.0015 | 16500 | 1 to 1.5 | > 100 |
| CC(C)[C@H](NC(=O)OCc1ccccc1)C(=O)NC[C@@H]1O[C@@H]1[C@H](Cc1ccccc1)NC(=O)[C@H](CC(N)=O)NC(=O)OCc1ccccc1 [compound 75] | > 10 | – | – | 1 | > 10 |
| CC(C)[C@H](CCc1ccccc1)NC(=O)C[C@@H]1O[C@@H]1[C@H](Cc1ccccc1)NC(=O)[C@H](CC(N)=O)NC(=O)c1ccc2ccccc2n1 [compound 44] | 0.011 | 0.0417 | 3.83e+06 | 0.3 | > 100 |
| CC(C)CC[C@@H]1O[C@@H]1[C@H](Cc1ccccc1)NC(=O)[C@H](CC(N)=O)NC(=O)c1ccc2ccccc2n1 [compound 70, 2-L-[N-(2-quinolinecarbonyl)-L-asparaginyl]amino-(3R,4S)-epoxy-7-methyl-1-phenyloctane] | 0.31 | 0.002 | 6500 | 5 | > 100 |
| CC(C)[C@H](NC(=O)N(C)Cc1ccccn1)C(=O)NC[C@@H]1O[C@@H]1[C@H](Cc1ccccc1)NC(=O)[C@@H](NC(=O)N(C)Cc1ccccn1)C(C)C [compound 80] | 0.15 | 0.00533 | 35000 | 0.5 | > 100 |
| NC(=O)C[C@H](NC(=O)OCc1ccccc1)C(=O)N[C@@H](Cc1ccccc1)[C@H]1O[C@H]1CCc1ccccc1 [compound 52, 2-L-(N-benzyloxycarbonyl-L-asparaginyl)amino-(3R,4S)-epoxy-1,6-diphenylhexane] | 0.1 | 0.0005 | 5000 | 0.7 to 1.2 | > 100 |
| CC(C)[C@H](NC(=O)C[C@@H]1O[C@@H]1[C@H](Cc1ccccc1)NC(=O)[C@H](CC(N)=O)NC(=O)c1ccc2ccccc2n1)c1ccccc1 [compound 47] | 0.012 | 0.0383 | 3.17e+06 | 0.07 | > 100 |
| CC(C)C(NC(=O)C[C@@H]1O[C@@H]1[C@H](Cc1ccccc1)NC(=O)[C@H](CC(N)=O)NC(=O)c1ccc2ccccc2n1)C(C)C [compound 46] | 0.0009 | 0.00267 | 3000 | 0.04 | > 100 |
| CC(C)[C@H](NC(=O)OCc1ccccc1)C(=O)N[C@@H](Cc1ccccc1)[C@H]1O[C@H]1CNC(=O)OC(C)(C)C [compound 82, 4S-[N^1-(t-butoxycarbonyl)amino]-[N^4-[(N-benzyloxycarbonyl-L-valinyl)amino]]-5-phenyl-(2S,3R)-(Z)-epoxypentane] | 0.45 | 0.0183 | 40000 | 0.75 | > 10 |
| CC[C@H](C)[C@H](NC(=O)C[C@@H]1O[C@@H]1[C@H](Cc1ccccc1)NC(=O)[C@H](CC(N)=O)NC(=O)c1ccc2ccccc2n1)C(=O)N(C)C [compound 26] | > 10 | – | – | 0.5 | > 100 |
